# Data from US4322545A, “Benzoic acid esters” (priority 1981, dated 1982).
# How the values were obtained:
# [1] = Ease of emulsification, water content of oil phase by Karl Fisher; type: physicochemical; settings: 20 ml toluene + 20 ml test solvent + 20 ml water, 40° C., 15 minutes
# Method: In this Example, the emulsifying properties of the compositions of the invention were compared to various commonly used solvents and to mixes of benzoates.
# Tests were conducted by adding exactly 20 ml of toluene to 20 ml of the test solvent in a glass stoppered cylinder and shaking to mix. When mixed, 20 ml of water was then added, the resulting mixture warmed to 40° C. and shaken 30 times.
# [2] = Spreading Coefficient and interfacial tension against water; type: physicochemical
# From the text: The higher the Spreading Coefficient, the greater the spreadability.
# skin = settings: in vivo; cited from earlier work
# [3] = Greasiness comparison on skin; settings: 70°-73°F
# From the text: A comparison of the composition of the present invention was undertaken with a single benzoate ester falling within the carbon chain length range encompassed in the mixtures of the invention. […] This ester product is the benzoic acid ester of a mixture of C12, C13, C14 and C15 alcohols corresponding to that contained in the NEODOL 25 alcohol.
# [4] = Cloud point and pour point; type: physicochemical
# Method: "Cloud point", refers to the temperature at which a waxy solid material appears as the liquid composition being examined is cooled. Cloud points are also associated with pour points, which is the lowest temperature at which a liquid will flow when a container is inverted. In all cases as the temperature is lowered, the cloud point is detected first, with the pour point being generally 5°-25° F. lower.
# [5] = Gel formation/settling with suspending agents; type: physicochemical
# From the text: Gel formation refers to the ability of an emollient oil to form gels with suspending agents such as quaternized hectorite (such as Bentone 38) or stearalkonium (Bentone 37).
# The viscosity of a gel is dependent on the polarity of the organic liquid it is suspended in. The more polar the liquid, the lower the viscosity. Non-polar or low polarity organic liquids result in higher viscosities. Completely non-polar liquids may present a problem in that too high viscosities results in a low percentage of a gellant. Upon further dilution (as normally occurs in formulation work), the ability to suspend matter can be lost in these instances.
# Desirably, basic gel cocentrates and formulation containing same, should show stability to a wide range of temperatures without phase separation--which would destroy the gel viscosity and suspending capabilities. In addition, the basic function of such gels is to suspend an active material present in a formulation as a particulate matter. In a system such as aerosol antiperspirants, the active is aluminum chlorhydrate present as insoluble particulates, with a particle size ranging from submicron to about 50 microns. Before use, the container is shaken to re-dispense the particulates in suspension as to provide the proper dosage of activities. Re-dispersion should be immediate, complete, and last for a period of time sufficient for proper application. […]
# rats = settings: Example 13; no source given; cited from earlier work
compound,measurement,setting,value
"CCCCCCCCCCCCCC(=O)OC(C)C [IPM (isopropyl myristate), isopropyl myristate]",% Water in Oil Phase (upper layer; by K-F Method),[1],0.12%
same,Spreading Coefficient,[2],17.7 dynes/cm
same,interfacial tension against water,[2]; 25° C.,17. dynes/cm
same,Skin irritation,skin,suspect as an irritant
"CCCCCCCCCCCCCCCC(=O)OC(C)C [IPP (isopropyl palmitate), isopropyl palmitate]",% Water in Oil Phase (upper layer; by K-F Method),[1],0.66%
"CCCCCCCCCCCCCCOC(=O)c1ccccc1 [Myristyl benzoate, myristyl (C14) benzoate]",Physical state at ambient room temperature,[3],virtually a solid
same,Cloud point,[4],21 °C
same,Settling time,[5],60 to 90 s
same,Gel viscosity,[5]; used as the organic liquid for the gel,abnormally high viscosities
CCCCOC(=O)c1ccccc1 [butyl benzoate],LD50 (comparison ester),rats,3.5 g/kg of body weight
Octyl Isononanoate,% Water in Oil Phase (upper layer; by K-F Method),[1],0.26%
